Source: patent US20110111016A1, “NON-DNA BASE-CONTAINING POLYNUCLEOTIDE COMPOSITIONS AND THEIR USE FOR THE MODULATION OF IMMUNE RESPONSES” (priority 2009, published 2011)

What was measured:
Type in all cases: cell-based
[1] = system: NF-κB control cells; assay: NF-κB reporter control cells (secreted alkaline phosphatase); conditions: at 100 ng/mL, 16-20 hours
Experimental: (§1) Toll-like receptors (TLR) are known to interact with a number of natural and synthetic molecules that can function as immune adjuvants. Examples of these molecules are Poly (I:C) polynucleotides, lipopolysaccharide and CpG-containing polynucleotides. The interaction of non-DNA base-containing polynucleotides (SEQ ID NOs: 1-3) to interact with TLR and induce down-stream signaling was tested by assessing NF-κB activation in HEK293 cells expressing human TLR2, 3, 4, 5, 7, 8 and 9. TLR engagement was determined by measurement of secreted alkaline phosphatase, under the control of a reporter inducible by NF-κB. Appropriate positive controls were used for each TLR. The non-DNA base-containing polynucleotides were dissolved in sterile water at a concentration of 100 μg/mL, and used at a final concentration of 10 μg/mL. HEK293 cells containing the appropriate TLR and NF-κB reporting system (InvivoGen, San Diego, Calif., USA) were placed in wells of 96 well plates (25,000-50,000 cells, in a final volume of 200 μL medium designed for the detection of NF-κB induced secreted alkaline phosphatase expression), and incubated with non-DNA base-containing polynucleotides or positive controls for 16-20 hours. TLR activating activity was determined by measurement of absorbance at 650 nm wavelength using a Coulter AD340C absorbance detector. The results shown are expressed as Optical Density (OD).

[2] = target: T1, human TLR3 (Homo sapiens, UniProt O15455); assay: NF-κB activation (secreted alkaline phosphatase reporter) in HEK293 cells expressing human TLR3; conditions: HEK293/hTLR3 cell line; at 1 μg/mL; 16-20 hours
T1 construct: host or cells: HEK293
T1 sequence (O15455 24-904): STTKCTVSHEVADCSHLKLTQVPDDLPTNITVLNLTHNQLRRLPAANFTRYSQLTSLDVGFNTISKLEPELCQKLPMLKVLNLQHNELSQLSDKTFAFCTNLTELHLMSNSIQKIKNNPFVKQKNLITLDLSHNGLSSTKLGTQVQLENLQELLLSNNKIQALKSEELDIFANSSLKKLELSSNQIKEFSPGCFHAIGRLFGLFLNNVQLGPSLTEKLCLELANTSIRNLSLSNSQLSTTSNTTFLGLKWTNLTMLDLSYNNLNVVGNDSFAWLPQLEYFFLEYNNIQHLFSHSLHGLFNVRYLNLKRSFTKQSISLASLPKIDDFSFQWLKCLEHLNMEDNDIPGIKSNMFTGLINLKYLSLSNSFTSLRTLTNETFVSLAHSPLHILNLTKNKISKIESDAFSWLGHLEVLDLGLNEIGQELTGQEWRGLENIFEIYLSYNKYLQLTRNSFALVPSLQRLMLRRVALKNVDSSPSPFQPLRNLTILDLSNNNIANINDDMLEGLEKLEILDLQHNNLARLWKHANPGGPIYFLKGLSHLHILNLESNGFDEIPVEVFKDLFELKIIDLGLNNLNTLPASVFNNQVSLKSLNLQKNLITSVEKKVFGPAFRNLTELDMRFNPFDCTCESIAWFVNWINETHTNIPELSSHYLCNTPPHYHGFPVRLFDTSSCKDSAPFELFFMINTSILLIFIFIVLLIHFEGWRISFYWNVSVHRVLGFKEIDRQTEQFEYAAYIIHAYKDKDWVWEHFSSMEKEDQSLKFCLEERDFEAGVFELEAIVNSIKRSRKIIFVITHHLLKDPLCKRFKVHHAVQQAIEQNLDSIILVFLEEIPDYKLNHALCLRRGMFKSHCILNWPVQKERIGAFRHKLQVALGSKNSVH
Experimental: as §1

[3] = target: T2, human TLR9 (Homo sapiens, UniProt Q9NR96); assay: NF-κB activation (secreted alkaline phosphatase reporter) in HEK293 cells expressing human TLR9; conditions: HEK293/hTLR9 cell line; at 100 ng/mL; 16-20 hours
T2 construct: host or cells: HEK293
T2 sequence (Q9NR96 26-1032): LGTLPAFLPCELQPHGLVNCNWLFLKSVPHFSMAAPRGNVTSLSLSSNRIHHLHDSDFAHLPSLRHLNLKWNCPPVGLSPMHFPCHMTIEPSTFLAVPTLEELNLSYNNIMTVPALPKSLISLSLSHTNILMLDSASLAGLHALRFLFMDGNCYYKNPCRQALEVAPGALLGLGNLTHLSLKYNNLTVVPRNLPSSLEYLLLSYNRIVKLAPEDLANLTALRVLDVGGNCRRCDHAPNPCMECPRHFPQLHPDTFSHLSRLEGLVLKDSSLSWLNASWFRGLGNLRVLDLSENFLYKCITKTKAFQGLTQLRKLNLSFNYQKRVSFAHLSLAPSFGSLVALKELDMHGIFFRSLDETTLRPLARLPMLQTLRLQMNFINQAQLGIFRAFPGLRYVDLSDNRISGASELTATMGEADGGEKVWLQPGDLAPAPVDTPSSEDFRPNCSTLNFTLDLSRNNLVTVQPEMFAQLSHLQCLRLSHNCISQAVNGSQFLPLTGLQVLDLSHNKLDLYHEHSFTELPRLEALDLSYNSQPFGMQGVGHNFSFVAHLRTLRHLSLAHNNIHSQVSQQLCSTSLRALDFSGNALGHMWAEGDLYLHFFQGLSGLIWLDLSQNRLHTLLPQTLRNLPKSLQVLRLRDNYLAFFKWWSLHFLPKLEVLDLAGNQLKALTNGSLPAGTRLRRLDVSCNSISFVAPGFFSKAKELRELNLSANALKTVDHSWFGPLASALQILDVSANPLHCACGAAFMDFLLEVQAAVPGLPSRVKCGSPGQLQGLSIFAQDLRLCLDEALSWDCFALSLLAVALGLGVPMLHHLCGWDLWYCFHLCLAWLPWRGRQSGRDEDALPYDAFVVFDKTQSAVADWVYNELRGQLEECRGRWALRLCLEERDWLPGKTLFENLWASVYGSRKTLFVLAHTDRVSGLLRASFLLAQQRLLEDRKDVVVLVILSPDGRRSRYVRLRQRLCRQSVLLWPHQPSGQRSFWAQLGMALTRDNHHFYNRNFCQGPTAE
Experimental: as §1, with “The non-DNA base-containing polynucleotides were dissolved in sterile water at a concentration of 100 μg/mL, and used at a final concentration of 10 μg/mL.” left out

[4] = system: human PBMC; assay: Induction of cytokines from human PBMC (ELISA cytokine capture assay); conditions: PBMC of 3 healthy adults, 48 h; increase two-fold that of background control; SEQ ID NOs 1-3 100 μg/mL, CpG 2006 and MCC 1-100 μg/mL, LPS 10 μg/mL
From the text: A number of immune adjuvants are known to be capable of eliciting cytokines from human PBMC cells. Examples of such adjuvants are alum, lipopolysaccharide, monophosphoryl lipid A, CpG-containing polynucleotides and non-CpG-containing ODN's, as well as mycobacterial cell wall-DNA complex (MCC). […] PBMC were isolated from whole blood using standard Ficoll-Paque (GE Healthcare Life Sciences, Baie d'Urfé, QC, Canada) gradient centrifugation, and placed in tissue culture plates at a concentration of 10^6 cells/mL (total volume: 1 mL in RPMI 1640 medium containing 10% heat-inactivated FBS, both from Wisent, St-Bruno, QC, Canada) and 50 μg/mL gentamycin sulfate (Sigma-Aldrich Canada, Oakville, ON, Canada). SEQ ID NOs: 1, 2 or 3 were added to give a final concentration of 100 μg/mL, and the cells were cultivated for 48 h. Cytokines (IL-1β, IL-2, IL-6, IL-10 and IL-12p40) in the supernatant at the end of incubation were determined by ELISA using a cytokine capture assay process (Biosource, Camarillo, Calif.). SEQ ID NO: 32 CpG 2006 ODN (1-100 μg/mL, 5′-[…]-3′, […]), MCC (1-100 μg/mL) and LPS (10 μg/mL) were used as positive controls.

[5] = system: human PBMC; assay: Induction of cytokines and chemokines from human PBMC, comparison with CpG polynucleotides (Milliplex MAP kit); conditions: for Cytokine, IL-6 / Cytokine, IL-10 / Cytokine, MCP-1 / Cytokine, RANTES (CCL5): human PBMC culture supernatant, 48 h, final concentration 10 μg/mL; for Chemokine (MCP-1, RANTES) inducing activity towards human PBMC (in words) / Interleukin (cytokine) inducing activity towards human PBMC (in words): in comparison to LPS and MCC, Table 14
Experimental: LPS and MCC were included as positive controls as described in Example 7. PBMC were isolated from whole blood using standard Ficoll-Paque Plus (GE Healthcare Life Sciences, Baie d'Urfé, QC, Canada) gradient centrifugation, and placed in tissue culture plates at a concentration of 1×10^6 cells/mL (total volume: 1 mL in RPMI 1640 medium containing 10% heat-inactivated FBS (both from Wisent, St-Bruno, QC, Canada) and 50 μg/mL gentamycin sulfate (Sigma-Aldrich Canada, Oakville, ON, Canada). Non-DNA base-containing polynucleotide SEQ ID NOs: 1, 2, 3, 4, 5, 6, 7, 8 and 9 were added to separate wells to give a final concentration of 10 μg/mL, LPS was added to give a final concentration of 10 μg/mL, and the non-CpG 4010, CpG 2336, CpG 2429 and CpG 7909 polynucleotides, SEQ ID NOs: 31, 33, 35 and 34, respectively, were added to give a final concentration of 10 μg/mL.
The cells were then cultivated for 48 h. Cytokines (interleukins IL-6 and IL-10, chemokines MCP-1 and RANTES) in the culture supernatant were measured using a Milliplex™ MAP kit (Millipore Corporation, Billerica, Mass., USA) on a Bio-Plex 200 system (Bio-Rad Laboratories, Hercules, Calif., USA). MCP-1, also known as monocyte chemotactic protein, is an essential chemokine required for effective monocyte and myeloid dendritic cell activation and trafficking across endothelial and epithelial barriers (see for example Henkel et al, 2004 Ann. Neurol. 55:221-235), and RANTES (Regulated on Activation, Normal T cell Expressed and Secreted, now more commonly known as CCL5) is produced by memory phenotype T cells and is chemotactic for and activates T-cells (see for example Swanson et al, 2002 Immunity 17:605-615).

Compound | Cytokine, IL-6 [5] | Cytokine, IL-10 [5] | Cytokine, MCP-1 [5] | Cytokine, RANTES (CCL5) [5] | Chemokine (MCP-1, RANTES) inducing activity towards human PBMC (in words) [5] | Interleukin (cytokine) inducing activity towards human PBMC (in words) [5] | also measured
CCCCCCCCCCCCCC(=O)O[C@@H]1[C@@H](C)[C@@]2(O)[C@@H](C=C(CO)C[C@]3(O)C(=O)C(C)=C[C@@H]23)[C@@H]2C(C)(C)[C@]12OC(C)=O [PMA, reference compound] |  |  |  |  |  |  | Optical Density at 650 nm, NF-κB control cells, positive control [1]: 2.765
Poly (I:C) [reference compound] |  |  |  |  |  |  | TLR activation, Optical Density at 650 nm, hTLR3, positive control [2]: 2.547
5′-TCGTCGTTTTGTCGTTTTGTCGTT-3′ [SEQ ID NO: 32 CpG 2006, reference compound] |  |  |  |  |  |  | TLR activation, Optical Density at 650 nm, hTLR9, positive control [3]: 1.904; Number of individuals responding, IL-1β [4]: 0/3; Number of individuals responding, IL-2 [4]: 0/3; Number of individuals responding, IL-6 [4]: 3/3; Number of individuals responding, IL-10 [4]: 2/3; Number of individuals responding, IL-12p40 [4]: 1/3
GIG (DNA GNG; Central inosine, sugar and linkages not given here, further chemistry not given here) [SEQ ID NO: 6, 5′-OH, 3′-OH non-DNA base-containing polynucleotide] | 0 pg/mL | 0 pg/mL | 48 pg/mL | 137 pg/mL | marginal or no | marginal or no | 
GGGTGGUUU (DNA GGGTGGNNN; Three 3' uracils, sugar and linkages not given here, further chemistry not given here) [SEQ ID NO: 9, 5′-OH, 3′-OH non-DNA base-containing polynucleotide] | 133 pg/mL | 1 pg/mL | 914 pg/mL | 117 pg/mL | strong MCP-1 inducing activity |  | 
GNebG (DNA GNG; Central nebularine, sugar and linkages not given here, further chemistry not given here) [SEQ ID NO: 4, 5′-OH, 3′-OH non-DNA base-containing polynucleotide] | 1960 pg/mL | 28 pg/mL | 7000 pg/mL | 211 pg/mL | strong | strong | 
